Results as given in patent US8063041B2 (Wyeth LLC, priority 2009, dated 2011).
Blank lines part the entries; values can stand above or below the compound they belong to.

Columns and labels:
[1] = Solubility of bazedoxifene acetate forms (dynamic dissolution method using Crystal-16 and HPLC method); type: physicochemical; settings: for solubility compared with Form B: crystallization solvent
Experimental: The profiles of the temperature and magnetic stirring speed for each row may be independently adjusted. The turbidity of each vial was monitored and plotted with the temperature profiles to determine dissolution and precipitation points of solids. A pre-weighed amount of solid and solvent were mixed together in clear glass vials, and were heated slowly (at 0.2° C./min). The dissolution temperature was recorded. The concentration of the solution (calculated based on the weight of solid and solvent) was treated as the saturation concentration at the recorded temperature, and solubility was calculated based on this concentration. […] The suspension was filtered after stirring for 30 minutes and the solution concentration was analyzed by HPLC. The measured solubility data for the two methods are plotted in FIGS. 4 and 5.

[2] = test system: ovariectomized rat; settings: ovariectomized rat model of osteopenia; cited from earlier work
[3] = test system: MCF-7 cell line (human breast cancer cell line); settings: cited from earlier work
[4] = test system: uterine response; settings: preclinical models of uterine stimulation; cited from earlier work

solubility compared with other forms ([1]; all conditions studied, crystallization solvent and slurry test solvent): higher than Forms B and D
SMILES: CC(=O)O.Cc1c(-c2ccc(O)cc2)n(Cc2ccc(OCCN3CCCCCC3)cc2)c2ccc(O)cc12 [Form A]

SMILES: Cc1c(-c2ccc(O)cc2)n(Cc2ccc(OCCN3CCCCCC3)cc2)c2ccc(O)cc12 [bazedoxifene acetate, 1-[4-(2-azepan-1-yl-ethoxy)-benzyl]-2-(4-hydroxy-phenyl)-3-methyl-1H-indol-5-ol acetic acid]
preventing bone loss [2]: estrogen agonist-like effect
reducing cholesterol [2]: estrogen agonist-like effect
estrogen agonist/antagonist behaviour [3]: behaves as an estrogen antagonist
stimulation of uterine response [4]: little or no stimulation

solubility compared with Form A ([1]; at 0-60° C.): less soluble
solubility compared with Form B ([1]; above about 30° C.): slightly higher than that of Form B
solubility compared with Form B ([1]; below about 30° C.): very similar to Form B solubility
SMILES: Cc1c(-c2ccc(O)cc2)n(Cc2ccc(OCCN3CCCCCC3)cc2)c2ccc(O)cc12 [Form D, 1-[4-(2-azepan-1-yl-ethoxy)-benzyl]-2-(4-hydroxy-phenyl)-3-methyl-1H-indol-5-ol acetic acid]
